Results taken from patent US8703723B2, “Glycoside compounds and pharmaceutical compositions thereof” (Centrose, LLC, priority 2009, dated 2014).
Read-outs that look alike come from different tables or passages of the source.

How the values were obtained:
[1] = tested on: A549 (NSCLC) cell line; conditions: footnote 2: data from Langenhan et al. 2005; cited from earlier work
[2] = tested on: NCI-H460 (NSCLC) cell line; conditions: footnote 2: data from Langenhan et al. 2005; cited from earlier work
[3] = tested on: SKOV3 (Ovarian) cell line; conditions: footnote 2: data from Langenhan et al. 2005; cited from earlier work
[4] = tested on: A549 (NSCLC) cell line; experiment: Cancer cell cytotoxicity assay (Calcein AM / Cell Titer-Glo), A549; assay type: cell-based, human
Protocol: (§1) Compounds of the invention and comparative compounds were assayed in three cancer cell lines to confirm cytotoxic activity and to set a range of concentrations to use in subsequent assays. All cell lines were maintained in RPMI medium 1640 supplemented with 10% (wt/vol) fetal bovine serum and penicillin-streptomycin (100 units/ml and 100 μg/ml). Cells were routinely checked for microbial or mycoplasma contamination and if necessary replaced. Cells were harvested by trypsinization using 0.25% trypsin and 0.1% EDTA and then counted in a ViCell XR coulter counter in duplicate, before and after dilution for assay plating. Between four to nine different types of human cancer cells were plated at a density of 10,000-15,000 cells per well of each 96-well black tissue culture treated microtiter plate, then were grown for 1 hour at 37° C. with 5% CO2/95% air in a humidified incubator to allow cells to attach before compound addition. Compound stocks (100×) were prepared in 96-well V-bottom polypropylene microtiter plates. Five serial (1:2) dilutions were made with anhydrous DMSO at 100× the final concentration used in the assay. The individual wells in compound-containing […] well plates were diluted 1:10 with complete cell culture medium and the 10× (10 μL) stocks were added to 90 μl of cells in each plate to ensure full mixing of stocks with culture media by using a Biomek FX liquid handler with 96-well head. Doxorubicin was used as the control to monitor the behavior of each cell line. Cells were incubated with the compounds for 3 to 4 days before fluorescence and luminescence reading. Test plates were removed from the incubator and washed once in sterile PBS to remove serum containing calcium esterases. Calcein AM (acetoxymethyl ester) reagent was added and the cells were incubated for 30 min at 37° C. Plates were read for emission by using a fluorescein filter (excitation 485 nm, emission 535 nm). An equal volume (30 μL) of Cell Titer-Glo reagent (Promega Corporation, Inc.) was added and incubated for 10 min at room temperature with gentle agitation to lyse the cells. Each plate was re-read for luminescence to confirm the inhibition observed in the fluorescent […] assay as a measure of cell viability. The cancer cell cytotoxicity assays were run in triplicate using ≧5 different drug concentrations, and the data were analyzed to establish statistical significance and a valid IC50 value for inhibition of cell growth, based on ≧2 log differences in drug effect.
(§2) The cancer cell cytotoxicities (determined substantially according to the method of Example 5) of various compounds of the invention and comparative compounds as determined in four to five different human cancer cell lines are shown in Table 1. The structures of the compounds listed are found in FIGS. 2-4.

[5] = tested on: H1299 (NSCLC) cell line; experiment: Cancer cell cytotoxicity assay (Calcein AM / Cell Titer-Glo), H1299; assay type: cell-based, human
Protocol: as §1, §2

[6] = tested on: NCI-H460 (NSCLC) cell line; experiment: Cancer cell cytotoxicity assay (Calcein AM / Cell Titer-Glo), NCI-H460; assay type: cell-based, human
Protocol: as §1, §2

[7] = tested on: HT29 (Colorectal) cell line; experiment: Cancer cell cytotoxicity assay (Calcein AM / Cell Titer-Glo), HT29; assay type: cell-based, human
Protocol: as §1, §2

[8] = tested on: SKOV3 (Ovarian) cell line; experiment: Cancer cell cytotoxicity assay (Calcein AM / Cell Titer-Glo), SKOV3; assay type: cell-based, human
Protocol: as §1, §2

[9] = tested on: human cancer cell lines; experiment: Cancer cell cytotoxicity, summary over four to five human cancer cell lines; assay type: cell-based; conditions: read-out: IC50 values (cancer cell cytotoxicity)
Protocol: as §1, §2

[10] = NSCLC, footnote 3: determined at same time as CEN07-117 and -121
[11] = Colorectal, footnote 3: determined at same time as CEN07-117 and -121
[12] = Ovarian, footnote 3: determined at same time as CEN07-117 and -121
[13] = NSCLC, footnote 5: determined at same time as CEN08-193
[14] = NSCLC, footnote 7: determined at same time as CEN08-180
[15] = NSCLC, footnote 4: determined at same time as CEN08-177 and -178
[16] = Colorectal, assay set not specified
[17] = Ovarian, assay set not specified

In the case of `CON[C@H]1CC[C@@]2(C)[C@H](CC[C@@H]3[C@@H]2CC[C@]2(C)[C@@H](C4=CC(=O)OC4)CC[C@]32O)C1` [(3β)-3-N-methoxyaminodigitoxigenin], the IC50 [1] is given as 8300 nM, the IC50 [2] is given as 2400 nM and the IC50 [3] is given as 3000 nM.

`CON(C1CCC2(C)C(CCC3C2CC(O)C2(C)C(C4=CC(=O)OC4)CCC32O)C1)C1OCC(O)C(O)C1O` (centres unmarked) [CEN07-117] showed an IC50 [4, 10] of 340 nM, an IC50 [5, 10] of 500 nM and an IC50 [6, 10] of 350 nM. It also gave an IC50 [7, 11] of 440 nM and an IC50 [8, 12] of 550 nM.

`CON(C1CCC2(C)C(CCC3C2CC(O)C2(C)C(C4=CC(=O)OC4)CCC32O)C1)C1OCC(O)C(O)C1O` (centres unmarked) [CEN07-121] showed an IC50 [4, 10] of 150 nM, an IC50 [5, 10] of 430 nM and an IC50 [6, 10] of 160 nM. The IC50 [7, 11] was 230 nM and the IC50 [8, 12] was 300 nM.

Work on `CON(C1CCC2(C)C(CCC3C2CCC2(C)C(C4=CC(=O)OC4)CCC32O)C1)C1OCC(O)C(O)C1O` [CEN07-W-101 (23S), reference compound] yielded an IC50 [4, 10] of 50 nM, an IC50 [4, 13] of 4 nM and an IC50 [4, 14] of 9 nM. For the same compound, the IC50 ([5]; NSCLC, assay set not specified) was 17 nM, the IC50 [5, 10] was 170 nM and the IC50 [5, 13] was 6 nM. It also gave an IC50 [6, 10] of 150 nM, an IC50 [6, 13] of 8 nM and an IC50 [6, 14] of 37 nM. The IC50 [7, 11] was 100 nM, the IC50 ([7]; Colorectal, footnote 5: determined at same time as CEN08-193) was 9 nM and the IC50 ([7]; Colorectal, footnote 7: determined at same time as CEN08-180) was 46 nM. For the same compound, the IC50 ([8]; Ovarian, footnote 5: determined at same time as CEN08-193) was 39 nM, the IC50 ([8]; Ovarian, footnote 7: determined at same time as CEN08-180) was 51 nM and the IC50 [1] was 79 nM. The IC50 [2] was 80 nM and the IC50 [3] was 220 nM.

In the case of `CC12CCC(OC3OCC(O)C(O)C3O)CC1CCC1C2CCC2(C)C(C3=CC(=O)OC3)CCC12O` (centres unmarked) [CEN08-177], the IC50 [4, 15] is reported as 20 nM, the IC50 [5, 15] is reported as 40 nM and the IC50 [6, 15] is reported as 20 nM. For the same compound, the IC50 ([7]; Colorectal, footnote 4: determined at same time as CEN08-177 and -178) was 70 nM and the IC50 ([8]; Ovarian, footnote 4: determined at same time as CEN08-177 and -178) was 80 nM.

Compound `C[C@]12CC[C@H](O[C@H]3OC[C@H](O)[C@@H](O)C3O)C[C@H]1CCC1C2CC[C@]2(C)[C@@H](C3=CC(=O)OC3)CC[C@]12O` (stereo partly drawn) [CEN08-178, 3-O-digitoxigenin-L-riboside] has an IC50 ([4]; Homo sapiens, A549, NSCLC, footnote 4: determined at same time as CEN08-177 and -178) of 20 nM, an IC50 ([5]; Homo sapiens, NCI-H1299, NSCLC, footnote 4: determined at same time as CEN08-177 and -178) of 50 nM and an IC50 ([6]; Homo sapiens, NCI-H460, NSCLC, footnote 4: determined at same time as CEN08-177 and -178) of 20 nM. The IC50 ([7]; Homo sapiens, HT-29, Colorectal, footnote 4: determined at same time as CEN08-177 and -178) was 70 nM, the IC50 ([8]; Homo sapiens, SK-OV-3, Ovarian, footnote 4: determined at same time as CEN08-177 and -178) was 80 nM and the IC50 [9] was < 80 nM.

`CON(C1C=C2CCC3C(CCC4(C)C(c5ccc(=O)oc5)CCC34O)C2(C)CC1)C1OCC(O)C(O)C1O` (centres unmarked) [CEN08-185] showed an IC50 ([4]; NSCLC, assay set not specified) of 2 nM, an IC50 ([5]; NSCLC, assay set not specified) of 5 nM and an IC50 ([6]; NSCLC, assay set not specified) of 9 nM. For the same compound, the IC50 [7, 16] was 13 nM and the IC50 [8, 17] was 15 nM.

In the case of `CC12CCC(OC3OCC(O)C(O)C3O)C=C1CCC1C2CCC2(C)C(c3ccc(=O)oc3)CCC12O` (centres unmarked) [CEN08-190], the IC50 ([4]; NSCLC, assay set not specified) is reported as 4 nM, the IC50 ([5]; NSCLC, assay set not specified) is reported as 4 nM and the IC50 ([6]; NSCLC, assay set not specified) is reported as 6 nM. It also gave an IC50 [7, 16] of 6 nM and an IC50 [8, 17] of 28 nM.

Compound `CC12CCC(OC3OCC(O)C(O)C3O)C=C1CCC1C2CCC2(C)C(c3ccc(=O)oc3)CCC12O` (centres unmarked) [CEN08-192] has an IC50 ([4]; NSCLC, assay set not specified) of 8 nM, an IC50 ([5]; NSCLC, assay set not specified) of 11 nM and an IC50 ([6]; NSCLC, assay set not specified) of 16 nM. For the same compound, the IC50 [7, 16] was 16 nM and the IC50 [8, 17] was 72 nM.
